{"source": "paper PMC3638464", "about": "“The transcriptional regulator CprK detects chlorination by combining direct and indirect readout mechanisms” (Philosophical Transactions of the Royal Society B: …, 2013)", "key": {"CprK [1]": {"biological_target": "CprK (Desulfitobacterium hafniense, UniProt B8FW11, C200S)", "sequence (B8FW11 entry or part of it C200S)": "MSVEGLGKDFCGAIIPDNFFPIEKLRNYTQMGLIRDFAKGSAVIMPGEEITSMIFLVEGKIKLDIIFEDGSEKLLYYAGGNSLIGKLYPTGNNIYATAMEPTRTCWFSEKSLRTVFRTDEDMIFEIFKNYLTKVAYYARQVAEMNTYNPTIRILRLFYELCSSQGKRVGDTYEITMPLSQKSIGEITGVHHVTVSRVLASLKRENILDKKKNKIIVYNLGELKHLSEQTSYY", "experiment": "cell-based", "type": "cell-based", "settings": "for n (Hill coefficient) / apparent Kd: in vivo, Hill fit; for n (Hill coefficient) / increase in fluorescence levels (in words): CprK C200S; for increase in fluorescence levels (in words): in vivo reporter; for apparent Kd: E. coli JM109 DE3, pGFPUV-DB7 + CprK C200S, effector concentration at half Fmax", "description": "Previous studies have shown that OCPA-dependent transcriptional activation by CprK can be monitored in Escherichia coli. To avoid any effects coupled to the redox state of the cell, we used a CprK C200S mutant as the basis for all our studies (referred to hereafter as CprK), as it was previously shown that oxidative disulfide bond formation involving C200 inactivates the regulator [23]. A region comprising 123 nucleotides of the upstream dehalobox promotor region of CprA1, containing CprK binding element dehalobox 7 (DB7), was cloned into pGFPUV in order to create a novel in vivo reporter system that makes use of an optimized variant of the green fluorescent protein (GFPUV) from Aequorea victoria. […] No significant increase in fluorescence levels could be detected in the presence of OCPA or similar compounds. […] By contrast, addition of 0.6 μM OCPA to the media leads to a nearly 10-fold increase in fluorescence levels, indicating CprK-mediated, OCPA-dependent transcriptional activation of the GFPUV gene occurs within the E. coli host. […] Our apparent Kd is the binding constant calculated as the concentration at which effector induces half Fmax (maximum fluorescence). […] In contrast to the direct measurement of formation of the CprK : OCPA complex for the in vitro experiment, the in vivo data probably report on the formation of the (CprK : OCPA : dehalobox : RNA polymerase) quaternary complex. […] It appears that under the conditions used for the pGFPUV-DB7-based system, the apparent Kd for OCPA is approximately 100-fold smaller than the established […] Kd values. […] It is important to keep in mind that transport processes could affect the intracellular OCPA concentrations across the membrane, although it would seem logical to assume this would affect OCPA and OCPA-like components in a similar manner. To confirm the apparent Kd value observed reflects inherent CprK affinity for the effector molecule, we measured the increase in fluorescence levels for a range of aromatic compounds.\n(§1) Overnight culture (150 μl) was plated onto 96-well optical bottom plates (Nunc). OCPA-related compounds (table 3) were then added to various end concentrations, and the plates placed on a rotary shaker at 37°C for 3 h. GFP fluorescence levels were measured using a Synergy HT microplate reader (BioTek) using a 400 nm, 30 nm bandpass excitation filter and a 508 nm, 20 nm bandpass emission filter. Data were collected using Gen5 v. 1.05 (Biotek) software. Fluorescence was normalized against cell density and measured by absorbance at 600 nm. The fluorescence ratio was plotted against effector concentration, and apparent Kd of binding was calculated using nonlinear curve fitting to a Hill plot."}, "[2]": {"settings": "assigned value, source not stated; cited from earlier work"}, "CprK K133L": {"system": "CprK K133L", "experiment": "In vivo GFPUV-DB7 reporter assay, K133L CprK mutant", "type": "cell-based, Desulfitobacterium hafniense", "procedure": "(§2) Table 1 and figure 3 show the dependence of fluorescence levels on OCPA concentrations for Y76F, G85A, G85P and K133L CprK mutants. […] Compared with the apparent Kd of WT CprK (0.019 ± 0.002 μM) for OCPA, the Y76F mutant has an approximately 500-fold decreased affinity for OCPA. The G85P mutation leads to an even more dramatic 4500-fold decrease, but this is probably not only a consequence of removal of the backbone NH hydrogen bond, but also because of the increased size and restricted conformational freedom of the proline side chain. […] While mutations at position 76 or 85 retain some activity, mutation at position 133 leads to a complete loss of transcriptional activation response. This clearly establishes K133 as the key contributor to the polar network established with the phenol moiety.\nas §1, with “OCPA-related compounds (table 3) were then added to various end concentrations, and the plates placed on a rotary shaker at 37°C for 3 h.” left out, “Data were collected using Gen5 v. 1.05 (Biotek) software.” left out"}, "CprK Y76F [3]": {"biological_target": "CprK Y76F (Desulfitobacterium hafniense, UniProt B8FW11, C200S/Y76F)", "sequence (B8FW11 entry or part of it Y76F/C200S)": "as the sequence (B8FW11 entry or part of it C200S) above, with Y76F counted along it", "experiment": "In vivo GFPUV-DB7 reporter assay, Y76F CprK mutant", "type": "cell-based", "procedure": "as §2\nas §1, with “OCPA-related compounds (table 3) were then added to various end concentrations, and the plates placed on a rotary shaker at 37°C for 3 h.” left out, “Data were collected using Gen5 v. 1.05 (Biotek) software.” left out"}, "CprK G85A": {"biological_target": "CprK G85A (Desulfitobacterium hafniense, UniProt B8FW11, C200S/G85A)", "sequence (B8FW11 entry or part of it G85A/C200S)": "as the sequence (B8FW11 entry or part of it C200S) above, with G85A counted along it", "experiment": "In vivo GFPUV-DB7 reporter assay, G85A CprK mutant", "type": "cell-based", "procedure": "as §2\nas §1, with “OCPA-related compounds (table 3) were then added to various end concentrations, and the plates placed on a rotary shaker at 37°C for 3 h.” left out, “Data were collected using Gen5 v. 1.05 (Biotek) software.” left out"}, "CprK G85P": {"biological_target": "CprK G85P (Desulfitobacterium hafniense, UniProt B8FW11, C200S/G85P)", "sequence (B8FW11 entry or part of it G85P/C200S)": "as the sequence (B8FW11 entry or part of it C200S) above, with G85P counted along it", "experiment": "In vivo GFPUV-DB7 reporter assay, G85P CprK mutant", "type": "cell-based", "procedure": "as §2\nas §1, with “OCPA-related compounds (table 3) were then added to various end concentrations, and the plates placed on a rotary shaker at 37°C for 3 h.” left out, “Data were collected using Gen5 v. 1.05 (Biotek) software.” left out"}, "CprK [4]": {"system": "CprK", "settings": "cited from earlier work"}, "CprK Y76F [5]": {"system": "CprK Y76F", "design": "method as in PMID 16803881", "settings": "previous study; cited from earlier work"}}, "data": [{"smiles": "O=[N+]([O-])c1ccc(O)c(Br)c1", "note": "[2-bromo-4-nitrophenol]", "values": [{"measurement": "n (Hill coefficient)", "setting": "CprK [1]", "result": "2.1 ± 0.1"}, {"measurement": "pKa value of R1 (phenol –OH)", "setting": "[2]", "result": "–OH (5.5)"}]}, {"smiles": "Nc1ccc([N+](=O)[O-])cc1Cl", "note": "[2-chloro-4-nitroaniline]", "values": [{"measurement": "increase in fluorescence levels (in words)", "setting": "CprK [1]", "result": "No increase"}, {"measurement": "apparent Kd", "setting": "CprK [1]; 3 h", "result": "no binding"}]}, {"smiles": "O=[N+]([O-])c1ccc(O)c(Cl)c1", "note": "[2-chloro-4-nitrophenol]", "values": [{"measurement": "n (Hill coefficient)", "setting": "CprK [1]", "result": "1.7 ± 0.2"}]}, {"smiles": "O=[N+]([O-])c1ccc(O)c(F)c1", "note": "[2-fluoro-4-nitrophenol]", "values": [{"measurement": "n (Hill coefficient)", "setting": "CprK [1]", "result": "4.7 ± 0.6"}, {"measurement": "pKa value of R1 (phenol –OH)", "setting": "[2]", "result": "–OH (5.7)"}]}, {"smiles": "Cc1cc([N+](=O)[O-])ccc1N", "note": "[2-methyl-4-nitroaniline]", "values": [{"measurement": "apparent Kd", "setting": "CprK [1]; 3 h", "result": "no binding"}]}, {"smiles": "Cc1cc([N+](=O)[O-])ccc1O", "note": "[2-methyl-4-nitrophenol]", "values": [{"measurement": "difference between o-methyl-p-nitrophenol and p-nitrophenol (apparent Kd)", "setting": "CprK [1]; apparent in vivo Kd", "result": "approximately sevenfold"}, {"measurement": "n (Hill coefficient)", "setting": "CprK [1]", "result": "1.8 ± 0.1"}, {"measurement": "pKa value of R1 (phenol –OH)", "setting": "[2]", "result": "–OH (7.4)"}]}, {"smiles": "O=C(O)Cc1ccc(O)c(Br)c1", "note": "[3-bromo-4-hydroxyphenylacetic acid]", "values": [{"measurement": "n (Hill coefficient)", "setting": "CprK [1]", "result": "3.2 ± 0.5"}, {"measurement": "pKa value of R1 (phenol –OH)", "setting": "[2]", "result": "–OH (8.5)"}]}, {"smiles": "O=C(O)Cc1cccc(Cl)c1", "note": "[3-chloro-phenylacetic acid]", "values": [{"measurement": "increase in fluorescence levels (in words)", "setting": "CprK [1]", "result": "No increase"}, {"measurement": "apparent Kd", "setting": "CprK [1]; 3 h", "result": "no binding"}]}, {"smiles": "O=C(O)Cc1ccc(O)c(F)c1", "note": "[3-fluoro-4-hydroxyphenylacetic acid]", "values": [{"measurement": "n (Hill coefficient)", "setting": "CprK [1]", "result": "1.8 ± 0.2"}, {"measurement": "pKa value of R1 (phenol –OH)", "setting": "[2]", "result": "–OH (8.8)"}]}, {"smiles": "Nc1ccc([N+](=O)[O-])cc1", "note": "[4-nitroaniline]", "values": [{"measurement": "apparent Kd", "setting": "CprK [1]; 3 h", "result": "no binding"}]}, {"smiles": "O=[N+]([O-])c1ccc(O)cc1", "note": "[4-nitrophenol]", "values": [{"measurement": "n (Hill coefficient)", "setting": "CprK [1]", "result": "2.8 ± 0.2"}, {"measurement": "pKa value of R1 (phenol –OH)", "setting": "[2]", "result": "–OH (7.2)"}]}, {"smiles": "O=C(O)Cc1ccc(O)cc1", "note": "[HPA, 4-hydroxyphenylacetic acid]", "values": [{"measurement": "n (Hill coefficient)", "setting": "CprK [1]", "result": "2.1 ± 0.2"}, {"measurement": "pKa value of R1 (phenol –OH)", "setting": "[2]", "result": "–OH (10.2)"}]}, {"smiles": "O=C(O)Cc1ccc(O)c(Cl)c1", "note": "[OCPA, 3-chloro-4-hydroxyphenylacetic acid]", "values": [{"measurement": "fold induction at 0.6 µM", "setting": "CprK [1]; 3 h, read-out: increase in fluorescence levels", "result": "~10"}, {"measurement": "n (Hill coefficient)", "setting": "CprK [1]", "result": "2.0 ± 0.2"}, {"measurement": "apparent Kd smaller than established Kd values", "setting": "CprK [1]; pGFPUV-DB7 system vs earlier Kd values", "result": "approximately 100 fold"}, {"measurement": "transcriptional activation response (in words)", "setting": "CprK K133L", "result": "complete loss"}, {"measurement": "Kd (apparent)", "setting": "CprK K133L; in vivo", "result": "no response"}, {"measurement": "Kd", "setting": "CprK Y76F [3]", "result": "10.2 ± 0.9", "unit": "µM"}, {"measurement": "n (Hill coefficient)", "setting": "CprK Y76F [3]; in vivo, Y76F mutant", "result": "1.6 ± 0.1"}, {"measurement": "Kd", "setting": "CprK G85A", "result": "1.03 ± 0.06", "unit": "µM"}, {"measurement": "n (Hill coefficient)", "setting": "CprK G85A; in vivo, G85A mutant", "result": "1.5 ± 0.1"}, {"measurement": "Kd", "setting": "CprK G85P", "result": "86.7 ± 5.8", "unit": "µM"}, {"measurement": "n (Hill coefficient)", "setting": "CprK G85P; in vivo, G85P mutant", "result": "1.9 ± 0.3"}, {"measurement": "pKa value of R1 (phenol –OH)", "setting": "[2]", "result": "–OH (8.5)"}, {"measurement": "increase of CprK affinity in the presence of a DNA promoter fragment", "setting": "CprK [4]", "result": "approximately 10 fold"}, {"measurement": "difference in affinity between OCPA and HPA", "setting": "CprK [4]; estimated from indirect in vitro measurements", "result": "~10^4"}, {"measurement": "Kd", "setting": "CprK [4]; previously reported in vitro", "result": "0.8 to 3.5", "unit": "µM"}, {"measurement": "decrease in the Kd caused by the Y76F mutation", "setting": "CprK Y76F [5]", "result": "approximately 10 fold"}]}]}
